Laboratory results taken from US6872735B2, “LFA-1 antagonist compounds” (Genentech, Inc., priority 2000, dated 2005).

Experiments:
[1] = Serum/plasma protein binding (ultrafiltration, LC/MS-MS); format: in vitro ADME; settings: pH 7.4, 37° C., Centrifree ultrafiltration
Protocol: Binding of test compounds was performed according to procedures described in Borga et al (Journal of Pharmacokinetics & Biopharmaceutics, 1997, 25(1):63-77) and Godolphin et al (Therapeutic drug monitoring, 1983, 5:319-23). Duplicate samples of 10 μl of test compound stock solution (1 μg/μL) was spiked into 1 mL of either buffer or serum/plasma adjusted to pH 7.4 using CO2 at room temperature. Samples were equilibrated by incubating vials in a water bath with shaker at 37° C. for 15 minutes. 200 μl of the buffer spiked sample was saved as prefiltrate. 800 μl of buffer spiked samples and 1 ml of serum spiked samples were centrifuged at 1500 g, 37° C., for 30 minutes in a Centrifree ultrafiltration device (Amicon Inc.). Pre and post-filtrates were then analyzed by LC/MS-MS and percent binding of test compound to serum/plasma protein was determined from the post and prefiltrates accounting for any non-specific binding determined from the buffer control.

[2] = biological target: recombinant human LFA-1 (LFA-1:ICAM-1) (Homo sapiens, UniProt P05107+P20701); assay: PLM2 antibody capture LFA-1:ICAM-1 assay
Chain of recombinant human LFA-1 (LFA-1:ICAM-1) (P20701 26-1170): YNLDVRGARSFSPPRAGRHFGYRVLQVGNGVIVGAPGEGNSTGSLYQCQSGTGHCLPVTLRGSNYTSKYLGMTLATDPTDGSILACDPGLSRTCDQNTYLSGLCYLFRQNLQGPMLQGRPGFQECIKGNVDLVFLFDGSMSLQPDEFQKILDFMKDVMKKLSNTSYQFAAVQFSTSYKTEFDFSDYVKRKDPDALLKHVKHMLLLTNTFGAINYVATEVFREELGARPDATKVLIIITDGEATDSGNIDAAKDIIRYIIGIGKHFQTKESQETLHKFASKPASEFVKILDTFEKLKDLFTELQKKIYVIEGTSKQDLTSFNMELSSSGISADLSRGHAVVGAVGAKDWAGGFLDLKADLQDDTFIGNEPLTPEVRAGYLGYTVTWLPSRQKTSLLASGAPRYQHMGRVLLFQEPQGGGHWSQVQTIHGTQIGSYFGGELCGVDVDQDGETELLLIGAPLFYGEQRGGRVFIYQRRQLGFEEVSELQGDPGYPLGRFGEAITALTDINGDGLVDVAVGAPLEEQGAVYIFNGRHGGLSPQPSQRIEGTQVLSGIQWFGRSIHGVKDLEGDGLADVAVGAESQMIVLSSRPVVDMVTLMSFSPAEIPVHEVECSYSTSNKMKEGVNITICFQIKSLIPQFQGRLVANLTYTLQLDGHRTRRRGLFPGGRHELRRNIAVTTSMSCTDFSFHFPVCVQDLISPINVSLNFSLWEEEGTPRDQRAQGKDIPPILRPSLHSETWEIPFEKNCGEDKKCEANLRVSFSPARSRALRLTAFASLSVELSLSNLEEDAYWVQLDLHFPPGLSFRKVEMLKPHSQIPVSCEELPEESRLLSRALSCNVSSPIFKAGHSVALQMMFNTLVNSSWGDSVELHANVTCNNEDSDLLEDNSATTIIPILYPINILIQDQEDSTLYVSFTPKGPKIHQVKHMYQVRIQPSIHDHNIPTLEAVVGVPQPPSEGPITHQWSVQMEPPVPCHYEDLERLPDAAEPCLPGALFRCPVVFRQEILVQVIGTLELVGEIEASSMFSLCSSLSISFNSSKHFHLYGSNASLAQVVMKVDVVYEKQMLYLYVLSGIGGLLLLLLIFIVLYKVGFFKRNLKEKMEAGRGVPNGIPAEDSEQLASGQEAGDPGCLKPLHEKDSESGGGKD
Chain of recombinant human LFA-1 (LFA-1:ICAM-1) (P05107 23-769): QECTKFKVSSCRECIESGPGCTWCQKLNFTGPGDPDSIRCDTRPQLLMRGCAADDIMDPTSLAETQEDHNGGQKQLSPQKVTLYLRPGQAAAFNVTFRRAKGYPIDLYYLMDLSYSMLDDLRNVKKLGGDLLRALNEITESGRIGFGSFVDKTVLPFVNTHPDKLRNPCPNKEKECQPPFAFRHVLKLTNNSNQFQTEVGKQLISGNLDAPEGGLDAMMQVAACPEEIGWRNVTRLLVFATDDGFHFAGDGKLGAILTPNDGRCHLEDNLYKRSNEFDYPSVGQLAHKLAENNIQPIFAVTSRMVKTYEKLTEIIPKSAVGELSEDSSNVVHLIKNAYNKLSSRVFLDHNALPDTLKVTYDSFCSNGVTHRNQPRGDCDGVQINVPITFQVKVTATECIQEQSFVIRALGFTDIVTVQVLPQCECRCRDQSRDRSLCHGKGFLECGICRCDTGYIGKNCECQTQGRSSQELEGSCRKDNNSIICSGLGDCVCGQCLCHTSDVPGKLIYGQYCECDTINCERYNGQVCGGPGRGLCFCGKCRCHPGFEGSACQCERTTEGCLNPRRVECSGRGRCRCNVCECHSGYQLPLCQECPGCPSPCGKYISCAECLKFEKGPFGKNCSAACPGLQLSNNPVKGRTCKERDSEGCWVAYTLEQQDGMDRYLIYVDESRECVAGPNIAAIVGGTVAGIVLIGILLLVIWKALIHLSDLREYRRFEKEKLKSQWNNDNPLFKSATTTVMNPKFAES
Protocol: The plates are blocked with 0.5% BSA in assay buffer (0.02M Hepes, 0.15M NaCl, and 1 mM MnCl2) 1 h at room temperature. Plates are washed with 50 mM Tris pH 7.5, 0.1M NaCl, 0.05% Tween 20 and 1 mM MnCl2. Purified full-length recombinant human LFA-1 protein is diluted to 2 μg/ml in assay buffer and 100 μl/well is added to plates and incubated 1 h at 37° C. Plates are washed 3×. 50 μl/well inhibitors, appropriately diluted in assay buffer, are added to a 2× final concentration and incubated for 30′ at 37° C. […] Plates are washed and bound ICAM-Ig is detected with Goat anti-HuIgG(Fc)-HRP for 1 h at room temperature. Plates are washed and developed with 100 μl/well TMB substrate for 5-10′ at room temperature.

Row | SMILES | fraction unbound at 15 min, 10 µg/mL [1] | IC50 [2]
1 | O=C(/C=C/c1ccco1)NCc1cc(Cl)c(C(=O)N[C@@H](CNC(=O)[C@H]2C[C@@H](O)CN2)C(=O)O)c(Cl)c1 [Compound 12] | 0.205 | 2 nM
2 | O=C(/C=C/c1ccco1)NCc1cc(Cl)c(C(=O)N[C@@H](CNC(=O)C2CCNCC2)C(=O)O)c(Cl)c1 [Compound 3] | 0.192 | 11 nM
3 | O=C(/C=C/c1ccco1)NCc1cc(Cl)c(C(=O)N[C@@H](CNC(=O)[C@@H]2CSCN2)C(=O)O)c(Cl)c1 [Compound 6] | 0.0457 | 7 nM
4 | O=C(/C=C/c1ccco1)NCc1cc(Cl)c(C(=O)N[C@@H](CNC(=O)[C@H]2C[C@H](O)CN2)C(=O)O)c(Cl)c1 [Compound 10] | 0.341 | 3 nM
5 | CC(=O)N1CCC[C@H]1C(=O)NC[C@H](NC(=O)c1c(Cl)cc(CNC(=O)/C=C/c2ccco2)cc1Cl)C(=O)O [Compound 17] | 0.154 | 3 nM
6 | C[C@H]1CCN[C@@H]1C(=O)NC[C@H](NC(=O)c1c(Cl)cc(CNC(=O)/C=C/c2ccco2)cc1Cl)C(=O)O [Compound 13] | 0.224 | 4 nM
7 | O=C(/C=C/c1ccco1)NCc1cc(Cl)c(C(=O)N[C@@H](CNC(=O)[C@@H]2CCCN2)C(=O)O)c(Cl)c1 [Compound 4] | 0.171 | 4 nM
8 | O=C(/C=C/c1ccco1)NCc1cc(Cl)c(C(=O)N[C@@H](CNC(=O)[C@@H]2C[C@@H](O)CN2)C(=O)O)c(Cl)c1 [Compound 14] | 0.274 | 2 nM
9 | O=C(/C=C/c1ccco1)NCc1cc(Cl)c(C(=O)N[C@@H](CNC(=O)[C@H]2CSCN2)C(=O)O)c(Cl)c1 [Compound 15] | 0.0749 | 4 nM
10 | O=C(/C=C/c1ccco1)NCc1cc(Cl)c(C(=O)N[C@@H](CNC(=O)[C@H]2CCCN2)C(=O)O)c(Cl)c1 [Compound 5] | 0.169 | 8 nM
11 | O=C(/C=C/c1ccco1)NCc1cc(Cl)c(C(=O)N[C@@H](CNC(=O)[C@@H]2CCCCN2)C(=O)O)c(Cl)c1 [Compound 9] | 0.228 | 2 nM

Second part, the molecule after the results:

Row | fraction unbound at 15 min, 10 µg/mL [1] | IC50 [2] | SMILES
12 | 0.0681 |  | O=C(N[C@@H](CNC(=O)[C@H]1C[C@@H](O)CN1)C(=O)O)c1c(Cl)cc(C(O)CCc2cccc(Cl)c2)cc1Cl (stereo partly drawn) [Compound 37]
13 | 0.17 | 2 nM | CC1CC[C@@H](C(=O)NC[C@H](NC(=O)c2c(Cl)cc(CNC(=O)/C=C/c3ccco3)cc2Cl)C(=O)O)N1 (stereo partly drawn) [Compound 44]
14 | 0.486 | 9 nM | CN(C[C@H](NC(=O)c1c(Cl)cc(CNC(=O)/C=C/c2ccco2)cc1Cl)C(=O)O)C(=O)[C@@H]1CCCN1 [Compound 35]
15 | 0.0671 | 12 nM | O=C(/C=C/c1ccco1)NCc1cc(Cl)c(C(=O)N[C@@H](CNC(=O)[C@@H]2CSC(=O)N2)C(=O)O)c(Cl)c1 [Compound 38]
16 | 0.072 | 5 nM | O=C(/C=C/c1ccco1)NCc1cc(Cl)c(C(=O)N[C@@H](CNC(=O)C2CCCO2)C(=O)O)c(Cl)c1 (stereo partly drawn) [Compound 51]
17 | 0.0307 | 2 nM | O=C(/C=C/c1ccco1)NCc1cc(Cl)c(C(=O)N[C@@H](CNC(=O)[C@@H]2CSC(=S)N2)C(=O)O)c(Cl)c1 [Compound 40]
18 | 0.152 | 3 nM | O=C(/C=C/c1ccco1)NCc1cc(Cl)c(C(=O)N[C@@H](CNC(=O)[C@H]2NCC[C@@H]2O)C(=O)O)c(Cl)c1 [Compound 41]
19 | 0.0716 | 2 nM | O=C(N[C@@H](CNC(=O)[C@@H]1CSCN1)C(=O)O)c1c(Cl)cc(C(O)CCc2cccc(O)c2)cc1Cl (stereo partly drawn) [Compound 36]
20 | 0.086 | 3 nM | O=C(/C=C/c1ccco1)NCc1cc(Cl)c(C(=O)N[C@@H](CNC(=O)C2CSCN2)C(=O)O)c(Cl)c1 (stereo partly drawn) [Compound 42]
